From patent US12053459B2, “CDK2 inhibitors and methods of using the same” (Cedilla Therapeutics, Inc., priority 2021, dated 2024) come the findings set out here.

Assay [1] deals with Kuramochi cells. Kind of assay: BrdU cell proliferation assay (colorimetric ELISA), Kuramochi cells. It is filed as cell-based. The note with it: class symbols A-D. The protocol:
A BrdU assay was used as a measure of proliferation based on the DNA replication process of proliferating cells. BrdU, a pyrimidine analog, is added to the cell culture and incorporated into the DNA of proliferating cells. The presence of the BrdU analog was then measured through a colorimetric ELISA. After fixation and permeabilization of cells, peroxidase-conjugated antibody recognizing BrdU is added and allowed to incubate, followed by thorough washing to remove unbound antibody. In order to quantify the amount of bound antibody, peroxidase substrate is added and produces a color that can be measured at 450 nm.
On day −1, Kuramochi cells (Sekisui XenoTech JCRB0098) were seeded at 2,000 cells/well in columns 2-12 of a 96 well plate (Corning, CLS3596) in 150 uL media and allowed to adhere overnight at 37 degree with 5% CO2. In order to assess specificity of the compounds, Kuramochi RB^KO cells were also plated and treated, as RB^KO cells were not expected to show a proliferative response to CCNE/CDK specific inhibitors.
On day 0, the source plate was prepared by adding 10 mM compounds and performing 3-fold serial dilutions for a 4-point dose response of each compound. Using a multichannel pipette, 2 uL of the contents of the source plate were stamped into an intermediate plate with 500 uL of RPMI 1640 Media, GlutaMAX Supplement (Life Technologies, 61870127) in each well of a Nunc 96 DeepWell™ plate, non-treated 96 DeepWell plate, 2 mL/well, sterile, natural, 60/cs (Sigma Z717274) and mixed thoroughly. 50 uL from row A of this intermediate plate were added to rows A-H of one plate of previously seeded Kuramochi cells, and each subsequent row of the intermediate plate was added to a full plate of cells.
On day 4, the plates were developed using the BrdU ELISA Cell Proliferation Assay according to manufacturer's instructions (Roche, 11647229001). Briefly, BrdU was diluted 1:100 in Gibco®, Opti-MEM® and 20 μL/well was added, shaken for 10 minutes at 350 rpm, and then returned to the incubator for 1 hour. Following incubation, the medium was discarded, and the cells were fixed by adding 200 μL of Fix/Denature solution. The anti-BrdU peroxidase antibody was diluted 1:1000 in OptiMEM, added at 100 μL/well, and incubated while shaking (350 rpm) for one hour. Three washes with PBS were performed to remove any unbound antibody, followed by the addition of 100 μL of substrate solution to each well. […] was then added to halt the reaction, and plates were read out using an Envision spectrophotometer (Perkin Elmer) set to read 450 nm absorbance. Background absorbance values from empty wells were subtracted from all samples and then normalized to DMSO treated wells.
On the technique in general: In an ELISA, binding on a coated surface is turned into a signal by an enzyme label.

Assay [2] has as its target CDK2/Cyclin E1(14-475) (Homo sapiens, UniProt P24941). Briefly: Caliper LabChip EZ Reader mobility shift assay, inhibition of CDK2/Cyclin E1 activity. Type of assay: biochemical. The following applies: class symbols A-D. The protocol: Inhibition of CDK2/Cyclin E1 activity in the presence of compounds of the present disclosure was evaluated using a Caliper LabChip® EZ Reader mobility shift assay. In the assay, activated CDK2/Cyclin E1 catalyzes the phosphorylation of a fluorescently tagged peptide 5-FAM-QSPKKG-CONH2 (PerkinElmer, FL Peptide 18) which induces a difference in capillary electrophoresis mobility. The peptide substrate and product were measured, and the conversion ratio was used to determine the inhibition (as % activity and IC50 values) of CDK2/Cyclin E1. Reactions contained 50 mM HEPES pH 7.5, 10 mM MgCl2, 1 mM EDTA, 2 mM DTT, 0.01% Brij35, 0.5 mg/mL BSA, 0.1% DMSO, 2.5 nM CDK2/Cyclin E1(14-475), 100 μM ATP, and 1.5 μM fluorescent peptide substrate.
Dose titrations of inhibitors in 100% DMSO were combined with 3.25 nM CDK2/Cyclin E1(14-475) and 130 μM of ATP in reaction buffer. The mixtures were incubated for 30 minutes before the addition of fluorescent peptide substrate to initiate the kinase reaction. The final conditions were 2.5 nM CDK2/Cyclin E1(14-475), 100 μM ATP, and 1.5 μM fluorescent peptide. The reactions were stopped after 100 minutes with the addition of EDTA (6 mM final EDTA concentration). The stopped reactions were analyzed on a Caliper LabChip® EZ Reader II. The conversion ratios were normalized to yield % activity, plotted against compound concentration, and fit to a four-parameter equation to determine the IC50 for each compound.

A word on the IC50: it is the point on the concentration scale where inhibition reaches its midpoint. In the case of `CNC(=O)[C@H](CCCc1ccccc1)NC(=O)C1CN(C(=O)Cc2c[nH]c3cc(Cl)ccc23)CC2CN(C(=O)c3cc(C)n(C)n3)CC21` (stereo partly shown) [I-39], the IC50 in assay [1] and in assay [2] was > 10 µM each time.

Turning to `CNC(=O)[C@H](CCCc1ccccc1)NC(=O)C1CN(C(=O)Cc2c[nH]c3cc(Cl)ccc23)CC2CN(C(=O)c3cn4ccncc4n3)CC21` (stereo partly shown) [I-40], the IC50 in assay [1] and in assay [2] was > 10 µM in each case.

`CCOc1cnc(C(=O)N2CC3CN(C(=O)Cc4c[nH]c5cc(Cl)ccc45)CC(C(=O)N[C@@H](CCCc4ccccc4)C(=O)NC)C3C2)cn1` (stereo partly shown) [I-41]: the IC50 in assay [1] and in assay [2] was > 10 µM throughout.

With `CNC(=O)[C@H](CCCc1ccccc1)NC(=O)C1CN(C(=O)Cc2c[nH]c3cc(Cl)ccc23)CC2CN(C(=O)c3ccc4cccn4c3)CC21` (stereo partly shown) [I-43], the IC50 in assay [1] and in assay [2] was > 10 µM throughout.

For the molecule `CNC(=O)[C@H](CCCc1ccccc1)NC(=O)C1CN(C(=O)Cc2c[nH]c3cc(Cl)ccc23)CC2CN(C(=O)c3cnc(C4CC4)nc3)CC21` (stereo partly shown) [I-44], the IC50 in assay [1] and in assay [2] was > 10 µM in each case.

In the case of `CNC(=O)[C@H](CCCc1ccccc1)NC(=O)C1CN(C(=O)Cc2c[nH]c3cc(Cl)ccc23)CC2CN(C(=O)c3ccc4c(c3)CNC4=O)CC21` (stereo partly shown) [I-45], the IC50 in assay [1] and in assay [2] was > 10 µM each time.

Turning to `CNC(=O)[C@H](CCCc1ccccc1)NC(=O)C1CN(C(=O)Cc2c[nH]c3cc(Cl)ccc23)CC2CN(C(=O)c3ccc(OC(C)C)c(F)c3)CC21` (stereo partly shown) [I-46], the IC50 was > 10 µM in assay [1] and 0.5 to 5 µM in assay [2].

Turning to `CNC(=O)[C@H](CCCc1ccccc1)NC(=O)C1CN(C(=O)Cc2c[nH]c3cc(Cl)ccc23)CC2CN(C(=O)c3nn(C)c4ccccc34)CC21` (stereo partly shown) [I-47], the IC50 in assay [1] and in assay [2] was > 10 µM each time.

On to `CNC(=O)[C@H](CCCc1ccccc1)NC(=O)C1CN(C(=O)Cc2c[nH]c3cc(Cl)ccc23)CC2CN(C(=O)c3c4ccccc4nn3C)CC21` (stereo partly shown) [I-48], for which the IC50 in assay [1] and in assay [2] was > 10 µM throughout.

With `CNC(=O)[C@H](CCCc1ccccc1)NC(=O)C1CN(C(=O)Cc2c[nH]c3cc(Cl)ccc23)CC2CN(C(=O)c3ccc(CC(C)C)cc3)CC21` (stereo partly shown) [I-52], the IC50 was > 10 µM in assay [1] and 5 to 10 µM in assay [2].

With `CNC(=O)[C@H](CCCc1ccccc1)NC(=O)C1CN(C(=O)Cc2c[nH]c3cc(Cl)ccc23)CC2CN(C(=O)c3ccc(NC(=O)C4CC4)c(OC)c3)CC21` (stereo partly shown) [I-54], the IC50 in assay [1] and in assay [2] was > 10 µM throughout.

On to `CNC(=O)[C@H](CCCc1ccccc1)NC(=O)C1CN(C(=O)Cc2c[nH]c3cc(Cl)ccc23)CC2CN(C(=O)c3cnn(C)c3)CC21` (stereo partly shown) [I-55], for which the IC50 in assay [1] and in assay [2] was > 10 µM in each case.

In the case of `CNC(=O)[C@H](CCCc1ccccc1)NC(=O)C1CN(C(=O)Cc2c[nH]c3cc(Cl)ccc23)CC2CN(C(=O)c3cc(C)[nH]n3)CC21` (stereo partly shown) [I-56], the IC50 is > 10 µM in assay [1] and 0.5 to 5 µM in assay [2].

As for `CNC(=O)[C@H](CCCc1ccccc1)NC(=O)C1CN(C(=O)Cc2c[nH]c3cc(Cl)ccc23)CC2CN(C(=O)c3ncccn3)CC21` (stereo partly shown) [I-57], the IC50 in assay [1] and in assay [2] was > 10 µM in each case.

Take `CCc1ccc(C(=O)N2CC3CN(C(=O)Cc4c[nH]c5cc(Cl)ccc45)CC(C(=O)N[C@@H](CCCc4ccccc4)C(=O)NC)C3C2)nc1` (stereo partly shown) [I-58]: the IC50 in assay [1] and in assay [2] was > 10 µM throughout.

As for `CNC(=O)[C@H](CCCc1ccccc1)NC(=O)C1CN(C(=O)Cc2c[nH]c3cc(Cl)ccc23)CC2CN(C(=O)c3ccc(-c4cncnc4)cc3)CC21` (stereo partly shown) [I-59], the IC50 in assay [1] and in assay [2] was > 10 µM each time.

As to `CNC(=O)[C@H](CCCc1ccccc1)NC(=O)C1CN(C(=O)Cc2c[nH]c3cc(Cl)ccc23)CC2CN(C(=O)c3cncc(C)n3)CC21` (stereo partly shown) [I-60], the IC50 in assay [1] and in assay [2] was > 10 µM each time.

For `CNC(=O)[C@H](CCCc1ccccc1)NC(=O)C1CN(C(=O)Cc2c[nH]c3cc(Cl)ccc23)CC2CN(C(=O)c3cc4ccccc4[nH]3)CC21` (stereo partly shown) [I-61], the IC50 in assay [1] and in assay [2] was > 10 µM throughout.

Take `CNC(=O)[C@H](CCCc1ccccc1)NC(=O)C1CN(C(=O)Cc2c[nH]c3cc(Cl)ccc23)CC2CN(C(=O)c3ccc4c(N)n[nH]c4c3)CC21` (stereo partly shown) [I-65]: the IC50 in assay [1] and in assay [2] was > 10 µM each time.

Take `CNC(=O)[C@H](CCCc1ccccc1)NC(=O)C1CN(C(=O)Cc2c[nH]c3cc(Cl)ccc23)CC2CN(C(=O)c3ccc(NS(C)(=O)=O)c(OC)c3)CC21` (stereo partly shown) [I-66]: the IC50 in assay [1] and in assay [2] was > 10 µM each time.

For the molecule `CNC(=O)[C@H](CCCc1ccccc1)NC(=O)C1CN(C(=O)Cc2c[nH]c3cc(Cl)ccc23)CC2CN(C(=O)c3ccc(NC(=O)CC4CC4)c(OC)c3)CC21` (stereo partly shown) [I-69], the IC50 in assay [1] and in assay [2] was > 10 µM throughout.

Take `CNC(=O)[C@H](CCCc1ccccc1)NC(=O)C1CN(C(=O)Cc2c[nH]c3cc(Cl)ccc23)CC2CN(C(=O)c3cnc(-c4ccccc4)s3)CC21` (stereo partly shown) [I-70]: the IC50 in assay [1] and in assay [2] was > 10 µM each time.

On to `CNC(=O)[C@H](CCCc1ccccc1)NC(=O)C1CN(C(=O)Cc2c[nH]c3cc(Cl)ccc23)CC2CN(C(=O)c3cc(-c4ccccc4)n(C)n3)CC21` (stereo partly shown) [I-71], for which the IC50 in assay [1] and in assay [2] was > 10 µM each time.

As for `CNC(=O)[C@H](CCCc1ccccc1)NC(=O)C1CN(C(=O)Cc2c[nH]c3cc(Cl)ccc23)CC2CN(C(=O)c3ccc4[nH]c(=O)oc4c3)CC21` (stereo partly shown) [I-72], the IC50 in assay [1] and in assay [2] was > 10 µM each time.

For `CNC(=O)[C@H](CCCc1ccccc1)NC(=O)C1CN(C(=O)Cc2c[nH]c3cc(Cl)ccc23)CC2CN(C(=O)c3ccc4c(c3)oc(=O)n4C)CC21` (stereo partly shown) [I-73], the IC50 in assay [1] and in assay [2] was > 10 µM each time.

With `CNC(=O)[C@H](CCCc1ccccc1)NC(=O)C1CN(C(=O)Cc2c[nH]c3cc(Cl)ccc23)CC2CN(C(=O)c3c[nH]c(-c4ccccc4)n3)CC21` (stereo partly shown) [I-74], the IC50 in assay [1] and in assay [2] was > 10 µM in each case.

With `CNC(=O)[C@H](CCCc1ccccc1)NC(=O)C1CN(C(=O)Cc2c[nH]c3cc(Cl)ccc23)CC2CN(C(=O)c3ccc4oc(=O)[nH]c4c3)CC21` (stereo partly shown) [I-75], the concentration for half-maximal inhibition (IC50) in assay [1] and in assay [2] was > 10 µM in each case.

For `CNC(=O)[C@H](CCCc1ccccc1)NC(=O)C1CN(C(=O)Cc2c[nH]c3cc(Cl)ccc23)CC2CN(C(=O)c3ccc(C)cn3)CC21` (stereo partly shown) [I-78], the IC50 in assay [1] and in assay [2] was > 10 µM throughout.

In the case of `CNC(=O)[C@H](CCCc1ccccc1)NC(=O)C1CN(C(=O)Cc2c[nH]c3cc(Cl)ccc23)CC2CN(C(=O)c3ccc(-c4cccnc4)cc3)CC21` (stereo partly shown) [I-79], the IC50 was > 10 µM in assay [1] and 5 to 10 µM in assay [2].

For the molecule `CNC(=O)[C@H](CCCc1ccccc1)NC(=O)C1CN(C(=O)Cc2c[nH]c3cc(Cl)ccc23)CC2CN(C(=O)c3ccc4cccnc4c3)CC21` (stereo partly shown) [I-80], the IC50 in assay [1] and in assay [2] was > 10 µM throughout.

Regarding `CNC(=O)[C@H](CCCc1ccccc1)NC(=O)C1CN(C(=O)Cc2c[nH]c3cc(Cl)ccc23)CC2CN(C(=O)c3ccc(OC(F)(F)F)c(OC)c3)CC21` (stereo partly shown) [I-82], the results for the 50% inhibitory concentration (IC50) in assay [1] and in assay [2] were 5 to 10 µM and 0.5 to 5 µM, respectively.

Regarding `CNC(=O)[C@H](CCCc1ccccc1)NC(=O)C1CN(C(=O)Cc2c[nH]c3cc(Cl)ccc23)CC2CN(C(=O)c3cc4c(c(OC)c3)OC(C)(C)C4)CC21` (stereo partly shown) [I-83], the IC50 in assay [1] is > 10 µM; in assay [2], ≤ 0.5 µM.
